Test: xn = mol fraction of the nth substance listed
Settings: 100 kPa

CCCC[n+]1ccn(C)c1.F[P-](F)(F)(F)(F)F + c1ccccc1
viscosity [mPa·s]
Settings | x2 = 0.0999 | x2 = 0.2002 | x2 = 0.3003 | x2 = 0.3953 | x2 = 0.5001 | x2 = 0.6779
313.2 K | 54.8 | 40.7 | 29 | 18.5 | 11.2 | 7.2
333.2 K | 26.9 | 22 | 15.1 | 9.6 | 7.6 | –

— a compilation of properties of binary mixtures (doi:10.1021/je1012444)
